Test results taken from patent publication US9302999B2, “Substituted triazoles as herbicides” (E. I. DU PONT DE NEMOURS AND COMPANY, priority 2012, dated 2016).

Columns and labels:
Format in all cases: in vivo
[1] = tested on: barnyardgrass (Echinochloa crus-galli); assay: Test A pre-/postemergence: barnyardgrass
Summary of the method: (§1)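 Injury is scored visually on a scale where 0 means no effect and 100 complete control, comparing treated with untreated plants after approximately ten greenhouse days. Both preemergence and postemergence applications are made at the same time.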

[2] = tested on: morningglory (Ipomoea spp.); assay: Test A pre-/postemergence: morningglory; conditions: Preemergence
Summary of the method: as §1

[3] = tested on: wheat (Triticum aestivum); assay: Test A pre-/postemergence: wheat
Summary of the method: as §1

corn (Zea mays) = assay: Test A pre-/postemergence: corn
Summary of the method: as §1

[4] = tested on: blackgrass (Alopecurus myosuroides); assay: Test C pre-/postemergence: blackgrass
Summary of the method: (§2)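 Preemergence on seeds in loam/sand, postemergence on 2–18 cm (1–4-leaf) plants in peat-based medium; compounds in non-phytotoxic solvent with surfactant. After 13–15 days in greenhouse, visual rating versus controls, 0 (no effect) to 100 (complete control).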

[5] = tested on: ryegrass, Italian (Italian ryegrass, Lolium multiflorum); assay: Test C pre-/postemergence: ryegrass, Italian
Summary of the method: as §2

[6] = tested on: large crabgrass (Digitaria sanguinalis); assay: Test C pre-/postemergence: large crabgrass
Summary of the method: as §2

[7] = tested on: johnsongrass (Sorghum halepense); assay: Test C pre-/postemergence: johnsongrass
Summary of the method: as §2

[8] = tested on: nutsedge, yellow (yellow nutsedge, Cyperus esculentus); assay: Test C pre-/postemergence: nutsedge, yellow
Summary of the method: as §2

[9] = tested on: pigweed (Amaranthus retroflexus); assay: Test C pre-/postemergence: pigweed
Summary of the method: as §2

soybean (Glycine max) = assay: Test C pre-/postemergence: soybean
Summary of the method: as §2

[10] = Postemergence, 125 g ai/ha, 0 to 100 scale, 0 is no effect, 100 is complete control
[11] = Postemergence, 500 g ai/ha, 0 to 100 scale, 0 is no effect, 100 is complete control
[12] = Preemergence, 125 g ai/ha, 0 to 100 scale where 0 is no effect and 100 is complete control
[13] = Preemergence, 500 g ai/ha, 0 to 100 scale (0 no effect, 100 complete control)
[14] = 125 g ai/ha, 0 to 100 scale where 0 is no effect and 100 is complete control
[15] = 500 g ai/ha, 0 to 100 scale (0 no effect, 100 complete control)
[16] = Postemergence, 31 g ai/ha, scale 0 to 100 (0 no effect, 100 complete control)
[17] = Postemergence, 62 g ai/ha, scale 0 to 100 (0 no effect, 100 complete control)
[18] = Postemergence, 125 g ai/ha, scale 0 to 100, 0 no effect, 100 complete control
[19] = Postemergence, 250 g ai/ha, scale 0 to 100
[20] = Preemergence, 31 g ai/ha, scale 0 (no effect) to 100 (complete control)
[21] = Preemergence, 62 g ai/ha, scale of 0 to 100, 0 is no effect, 100 is complete control
[22] = Preemergence, 125 g ai/ha, scale 0 to 100, 0 no effect, 100 complete control
[23] = Preemergence, 250 g ai/ha, scale 0 to 100, 0 no effect, 100 complete control
[24] = Postemergence, 250 g ai/ha, scale 0 to 100 (0 no effect, 100 complete control)

CCCc1nn(-c2ccc(F)cc2)nc1Oc1ccnc(C(F)(F)F)c1 [Compound 168]
Plant response rating, Barnyardgrass [1, 10]: 90 | Barnyardgrass plant response rating [1, 11]: 90 | Plant response rating, Barnyardgrass [1, 12]: 90 | Plant response rating, Barnyardgrass [1, 13]: 100 | Plant response rating, Morningglory [2, 14]: 20 | Plant response rating, Morningglory [2, 15]: 50 | Plant response rating, Wheat [3, 10]: 40 | Wheat plant response rating [3, 11]: 50 | Plant response rating, Wheat [3, 12]: 40 | Plant response rating, Wheat [3, 13]: 60 | Plant response rating, Corn (corn (Zea mays); [10]): 20 | Corn plant response rating (corn (Zea mays); [11]): 50 | Plant response rating, Corn (corn (Zea mays); [12]): 20 | Plant response rating, Corn (corn (Zea mays); [13]): 40 | Plant response rating, Blackgrass [4, 16]: 45 | Plant response rating, Blackgrass [4, 17]: 45 | Plant response rating, Blackgrass [4, 18]: 80 | Plant response rating, Blackgrass [4, 19]: 80 | Plant response rating, Blackgrass [4, 20]: 90 | Plant response rating, Blackgrass [4, 21]: 90 | Plant response rating, Blackgrass [4, 22]: 95 | Plant response rating, Blackgrass [4, 23]: 98 | Plant response rating, Ryegrass, Italian [5, 16]: 10 | Plant response rating, Ryegrass, Italian [5, 17]: 35 | Plant response rating, Ryegrass, Italian [5, 18]: 60 | Plant response rating, Ryegrass, Italian [5, 24]: 80 | Plant response rating, Ryegrass, Italian [5, 20]: 70 | Plant response rating, Ryegrass, Italian [5, 21]: 98 | Plant response rating, Ryegrass, Italian [5, 22]: 100 | Plant response rating, Ryegrass, Italian [5, 23]: 100 | Plant response rating, Crabgrass, Large [6, 16]: 30 | Plant response rating, Crabgrass, Large [6, 17]: 65 | Plant response rating, Crabgrass, Large [6, 18]: 95 | Plant response rating, Crabgrass, Large [6, 19]: 95 | Plant response rating, Crabgrass, Large [6, 20]: 100 | Plant response rating, Crabgrass, Large [6, 21]: 100 | Plant response rating, Crabgrass, Large [6, 22]: 100 | Plant response rating, Crabgrass, Large [6, 23]: 100 | Plant response rating, Johnsongrass [7, 16]: 30 | Plant response rating, Johnsongrass [7, 17]: 55 | Plant response rating, Johnsongrass [7, 18]: 70 | Plant response rating, Johnsongrass [7, 24]: 75 | Plant response rating, Johnsongrass [7, 20]: 75 | Plant response rating, Johnsongrass [7, 21]: 98 | Plant response rating, Johnsongrass [7, 22]: 100 | Plant response rating, Johnsongrass [7, 23]: 100 | Plant response rating, Nutsedge, Yellow [8, 16]: 10 | Plant response rating, Nutsedge, Yellow [8, 17]: 10 | Plant response rating, Nutsedge, Yellow [8, 18]: 15 | Plant response rating, Nutsedge, Yellow [8, 24]: 20 | Plant response rating, Nutsedge, Yellow [8, 20]: 0 | Plant response rating, Nutsedge, Yellow [8, 21]: 0 | Plant response rating, Nutsedge, Yellow [8, 22]: 5 | Plant response rating, Nutsedge, Yellow [8, 23]: 5 | Plant response rating, Pigweed [9, 16]: 80 | Plant response rating, Pigweed [9, 17]: 98 | Plant response rating, Pigweed [9, 18]: 98 | Plant response rating, Pigweed [9, 24]: 98 | Plant response rating, Pigweed [9, 20]: 100 | Plant response rating, Pigweed [9, 21]: 100 | Plant response rating, Pigweed [9, 22]: 100 | Plant response rating, Pigweed [9, 23]: 100 | Plant response rating, Soybean (soybean (Glycine max); [16]): 30 | Plant response rating, Soybean (soybean (Glycine max); [17]): 35 | Plant response rating, Soybean (soybean (Glycine max); [18]): 60 | Plant response rating, Soybean (soybean (Glycine max); [24]): 60 | Plant response rating, Soybean (soybean (Glycine max); [20]): 5 | Plant response rating, Soybean (soybean (Glycine max); [21]): 10 | Plant response rating, Soybean (soybean (Glycine max); [22]): 10 | Plant response rating, Soybean (soybean (Glycine max); [23]): 35

CCc1nn(-c2ccc(C(F)(F)F)cc2)nc1Oc1ccnc(C(F)(F)F)c1 [Compound 169]
Plant response rating, Barnyardgrass [1, 10]: 80 | Barnyardgrass plant response rating [1, 11]: 90 | Plant response rating, Barnyardgrass [1, 12]: 80 | Plant response rating, Barnyardgrass [1, 13]: 90 | Plant response rating, Morningglory [2, 14]: 20 | Plant response rating, Morningglory [2, 15]: 40 | Plant response rating, Wheat [3, 10]: 30 | Wheat plant response rating [3, 11]: 40 | Plant response rating, Wheat [3, 12]: 20 | Plant response rating, Wheat [3, 13]: 50 | Plant response rating, Corn (corn (Zea mays); [10]): 10 | Corn plant response rating (corn (Zea mays); [11]): 50 | Plant response rating, Corn (corn (Zea mays); [12]): 20 | Plant response rating, Corn (corn (Zea mays); [13]): 20 | Plant response rating, Blackgrass [4, 16]: 5 | Plant response rating, Blackgrass [4, 17]: 15 | Plant response rating, Blackgrass [4, 18]: 35 | Plant response rating, Blackgrass [4, 19]: 50 | Plant response rating, Blackgrass [4, 20]: 80 | Plant response rating, Blackgrass [4, 21]: 90 | Plant response rating, Blackgrass [4, 22]: 95 | Plant response rating, Blackgrass [4, 23]: 95 | Plant response rating, Ryegrass, Italian [5, 16]: 10 | Plant response rating, Ryegrass, Italian [5, 17]: 10 | Plant response rating, Ryegrass, Italian [5, 18]: 25 | Plant response rating, Ryegrass, Italian [5, 24]: 40 | Plant response rating, Ryegrass, Italian [5, 20]: 85 | Plant response rating, Ryegrass, Italian [5, 21]: 90 | Plant response rating, Ryegrass, Italian [5, 22]: 90 | Plant response rating, Ryegrass, Italian [5, 23]: 95 | Plant response rating, Crabgrass, Large [6, 16]: 35 | Plant response rating, Crabgrass, Large [6, 17]: 35 | Plant response rating, Crabgrass, Large [6, 18]: 40 | Plant response rating, Crabgrass, Large [6, 19]: 80 | Plant response rating, Crabgrass, Large [6, 20]: 100 | Plant response rating, Crabgrass, Large [6, 21]: 100 | Plant response rating, Crabgrass, Large [6, 22]: 100 | Plant response rating, Crabgrass, Large [6, 23]: 100 | Plant response rating, Johnsongrass [7, 16]: 15 | Plant response rating, Johnsongrass [7, 17]: 30 | Plant response rating, Johnsongrass [7, 18]: 35 | Plant response rating, Johnsongrass [7, 24]: 50 | Plant response rating, Johnsongrass [7, 20]: 20 | Plant response rating, Johnsongrass [7, 21]: 75 | Plant response rating, Johnsongrass [7, 22]: 95 | Plant response rating, Johnsongrass [7, 23]: 98 | Plant response rating, Nutsedge, Yellow [8, 16]: 5 | Plant response rating, Nutsedge, Yellow [8, 17]: 5 | Plant response rating, Nutsedge, Yellow [8, 18]: 10 | Plant response rating, Nutsedge, Yellow [8, 24]: 10 | Plant response rating, Nutsedge, Yellow [8, 20]: 0 | Plant response rating, Nutsedge, Yellow [8, 21]: 5 | Plant response rating, Nutsedge, Yellow [8, 22]: 5 | Plant response rating, Nutsedge, Yellow [8, 23]: 5 | Plant response rating, Pigweed [9, 16]: 95 | Plant response rating, Pigweed [9, 17]: 95 | Plant response rating, Pigweed [9, 18]: 100 | Plant response rating, Pigweed [9, 24]: 100 | Plant response rating, Pigweed [9, 20]: 100 | Plant response rating, Pigweed [9, 21]: 100 | Plant response rating, Pigweed [9, 22]: 100 | Plant response rating, Pigweed [9, 23]: 100 | Plant response rating, Soybean (soybean (Glycine max); [16]): 30 | Plant response rating, Soybean (soybean (Glycine max); [17]): 30 | Plant response rating, Soybean (soybean (Glycine max); [18]): 50 | Plant response rating, Soybean (soybean (Glycine max); [24]): 55 | Plant response rating, Soybean (soybean (Glycine max); [20]): 0 | Plant response rating, Soybean (soybean (Glycine max); [21]): 5 | Plant response rating, Soybean (soybean (Glycine max); [22]): 10 | Plant response rating, Soybean (soybean (Glycine max); [23]): 30
